# Reference: patent US20240150365A1 (Hotspot Therapeutics, Inc., priority 2022, published 2024)
# Tests used:
# MALT1 = target: T1, MALT1 (Homo sapiens, UniProt Q9UDY8); assay: MALT-1 Fluorogenic Peptide Cleavage Assay (MALT1 inhibition assay); assay type: biochemical; conditions: Avi-tagged FL MALT-1, Ac-LRSR-AMC peptide substrate, 30 min pre-incubation, 90 min reaction
# T1 construct: Avi-tagged FL MALT-1 (Pharmaron, stored at −70° C.); Avi tag
# T1 sequence (Q9UDY8 1-824): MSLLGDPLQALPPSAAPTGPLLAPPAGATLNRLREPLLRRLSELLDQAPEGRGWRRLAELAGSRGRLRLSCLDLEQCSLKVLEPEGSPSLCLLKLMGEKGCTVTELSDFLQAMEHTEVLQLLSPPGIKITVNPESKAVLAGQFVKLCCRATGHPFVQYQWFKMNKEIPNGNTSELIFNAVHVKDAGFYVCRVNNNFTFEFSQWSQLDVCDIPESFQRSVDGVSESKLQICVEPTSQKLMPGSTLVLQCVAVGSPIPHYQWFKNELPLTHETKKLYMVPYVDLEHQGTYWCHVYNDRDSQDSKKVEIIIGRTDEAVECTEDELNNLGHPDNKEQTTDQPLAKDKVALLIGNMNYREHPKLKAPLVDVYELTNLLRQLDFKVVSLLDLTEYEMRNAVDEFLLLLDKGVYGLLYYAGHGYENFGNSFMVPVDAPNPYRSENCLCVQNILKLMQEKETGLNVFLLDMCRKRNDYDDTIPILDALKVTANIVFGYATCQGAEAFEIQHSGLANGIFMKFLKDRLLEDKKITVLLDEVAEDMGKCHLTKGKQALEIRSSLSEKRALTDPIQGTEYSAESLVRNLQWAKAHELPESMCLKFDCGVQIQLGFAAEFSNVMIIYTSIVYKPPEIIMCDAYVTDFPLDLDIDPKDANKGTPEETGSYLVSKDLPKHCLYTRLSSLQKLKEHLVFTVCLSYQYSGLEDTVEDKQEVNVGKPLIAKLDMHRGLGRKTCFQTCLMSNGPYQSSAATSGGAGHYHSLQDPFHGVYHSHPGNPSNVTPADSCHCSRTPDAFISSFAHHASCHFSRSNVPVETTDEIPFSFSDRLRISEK
# Method in brief: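 IC50 from sigmoidal fits of % inhibition, with fluorescence (ex 342, em 441 nm) from AMC released from the quenched LRSR peptide after 90 min at room temperature. Full-length Avi-tagged MALT1 saw compound for 30 min first; final DMSO 2%.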
# NF-kB = NF-kB reporter assay in Jurkat cells stimulated with aCD3/aCD28/PMA; assay type: cell-based; conditions: Homo sapiens, Jurkat, Jurkat cells, 1 hr compound incubation, aCD3/aCD28/PMA stimulation 4 hr, One-Glo readout; read-out: NF-kB Reporter Assay IC50
# Method in brief: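 Stimulation used final aCD3 5 μg/mL, aCD28 5 μg/mL and PMA 0.03 μg/mL for 4 hr at 37° C, after 1 hr compound pretreatment of 25,000 serum-starved Jurkat cells per well. One-Glo luminescence gave IC50 values.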
IC50 (MALT1),IC50 (NF-kB),SMILES
> 2.5 µM,0.4 to 1 µM,"COc1ccc2cnn(C)c2c1NS(=O)(=O)c1ccc(-c2cnn3c2OCCC3)nc1 [Example I-303, 6-(6,7-dihydro-5H-pyrazolo[5,1-b][1,3]oxazin-3-yl)-N-(6-methoxy-1-methyl-1H-indazol-7-yl)pyridine-3-sulfonamide]"
< 0.4 µM,< 0.4 µM,"COc1ccc2cnn(C)c2c1NS(=O)(=O)c1ccc(-n2nc(C(F)(F)F)c3c2CCOC3)nc1 [Example I-304, N-(6-methoxy-1-methyl-1H-indazol-7-yl)-6-(3-(trifluoromethyl)-6,7-dihydropyrano[4,3-c]pyrazol-1(4H)-yl)pyridine-3-sulfonamide]"
> 2.5 µM,0.4 to 1 µM,COc1ncc2cnn(C)c2c1NS(=O)(=O)c1ccc(-c2nn(C)c3c2COCC3)nc1 [Example I-305]
> 2.5 µM,< 0.4 µM,"Cn1nc(-c2ccc(S(=O)(=O)Nc3cccc4cnn(C)c34)cn2)c2c1CCOC2 [Example I-306, 6-(1-methyl-1,4,6,7-tetrahydropyrano[4,3-c]pyrazol-3-yl)-N-(1-methyl-1H-indazol-7-yl)pyridine-3-sulfonamide]"
> 2.5 µM,0.4 to 1 µM,COc1ccc2cnn(C)c2c1NS(=O)(=O)c1ccc(-c2nn(C)c3c2COCC3)nc1 [Example I-307]
1 to 2.5 µM,< 0.4 µM,COc1ccc2cnn(C)c2c1NS(=O)(=O)c1ccc(-c2cnn3c2COCC3)nc1 [Example I-308]
> 2.5 µM,< 0.4 µM,"Cn1ncc2cccc(NS(=O)(=O)c3ccc(-c4cnc5n4CCOC5)nc3)c21 [Example I-309, 6-(5,6-dihydro-8H-imidazo[2,1-c][1,4]oxazin-3-yl)-N-(1-methyl-1H-indazol-7-yl)pyridine-3-sulfonamide]"
> 2.5 µM,> 2.5 µM,"COc1ccc2cnn(C)c2c1NS(=O)(=O)c1ccc(-c2cnn3c2COCCC3)nc1 [Example I-310, 6-(7,8-dihydro-4H,6H-pyrazolo[5,1-c][1,4]oxazepin-3-yl)-N-(6-methoxy-1-methyl-1H-indazol-7-yl)pyridine-3-sulfonamide]"
> 2.5 µM,> 2.5 µM,COc1ncc2cnn(C)c2c1NS(=O)(=O)c1ccc(-c2cnn3c2COCCC3)nc1 [Example I-311]
1 to 2.5 µM,0.4 to 1 µM,"COc1ccc2cnn(C)c2c1NS(=O)(=O)c1ccc(-c2cnc3n2CCOC3)nc1 [Example I-312, 6-(5,6-dihydro-8H-imidazo[2,1-c][1,4]oxazin-3-yl)-N-(6-methoxy-1-methyl-1H-indazol-7-yl)pyridine-3-sulfonamide]"
> 2.5 µM,< 0.4 µM,Cn1ncc2cccc(NS(=O)(=O)c3ccc(-c4cnn5c4COCCC5)nc3)c21 [Example I-313]
> 2.5 µM,1 to 2.5 µM,"CN1CCn2ncc(-c3ccc(S(=O)(=O)Nc4cccc5cnn(C)c45)cn3)c2C1 [Example I-314, 6-{5-methyl-4H,6H,7H-pyrazolo[1,5-a]pyrazin-3-yl}-N-(1-methylindazol-7-yl)pyridine-3-sulfonamide]"
> 2.5 µM,> 2.5 µM,COc1ccc2cnn(C)c2c1NS(=O)(=O)c1ccc(-c2cnn3c2CN(C)CC3)nc1 [Example I-315]
< 0.4 µM,< 0.4 µM,"[2H]C([2H])([2H])Oc1ccc2cnn(C([2H])([2H])[2H])c2c1NS(=O)(=O)c1ccc(-n2cc(C(F)(F)F)cn2)nc1 [Example I-316, N-(6-(methoxy-d3)-1-(methyl-d3)-1H-indazol-7-yl)-6-(4-(trifluoromethyl)-1H-pyrazol-1-yl)pyridine-3-sulfonamide]"
